In article PMC9706024, “Chromenone Derivatives as Monoamine Oxidase Inhibitors from Marine-Derived MAR4 Clade Streptomyces sp. CNQ-031” (Journal of Microbiology and Biotechnology, 2021):
“Also recorded” adds a separate entry of the source.

Columns and labels:
MAO-A = conditions: cited from earlier work
[1] = target: T1, AChE from Electrophorus electricus (Electrophorus electricus, UniProt O42275); assay: biochemical; conditions: means ± SD of duplicate experiments; for remaining activity at 10 µM: read-out: Residual activity at 10 µM (%) AChE
T1 construct: AChE from Electrophorus electricus; purchased Sigma-Aldrich (USA)
T1 sequence (O42275 24-633): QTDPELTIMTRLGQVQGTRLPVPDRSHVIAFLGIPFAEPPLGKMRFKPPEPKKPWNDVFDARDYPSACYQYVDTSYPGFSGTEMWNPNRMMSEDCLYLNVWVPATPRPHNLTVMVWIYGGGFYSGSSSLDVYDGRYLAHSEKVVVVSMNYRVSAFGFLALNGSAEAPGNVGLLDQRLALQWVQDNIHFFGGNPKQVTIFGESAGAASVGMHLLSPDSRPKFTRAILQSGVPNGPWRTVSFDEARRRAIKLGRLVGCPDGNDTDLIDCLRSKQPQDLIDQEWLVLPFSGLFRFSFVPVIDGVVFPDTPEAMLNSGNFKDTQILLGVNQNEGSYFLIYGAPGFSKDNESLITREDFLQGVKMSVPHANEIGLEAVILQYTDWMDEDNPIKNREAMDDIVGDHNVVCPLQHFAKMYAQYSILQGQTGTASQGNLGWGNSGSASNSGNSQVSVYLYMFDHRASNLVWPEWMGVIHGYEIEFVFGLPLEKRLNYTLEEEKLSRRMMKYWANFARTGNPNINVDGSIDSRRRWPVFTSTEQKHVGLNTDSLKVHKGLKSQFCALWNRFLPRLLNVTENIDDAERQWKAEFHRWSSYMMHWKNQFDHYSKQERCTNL

BACE-1 = target: T2, BACE-1 (Homo sapiens, UniProt P56817); assay: BACE-1 Activity Detection Kit, fluorescence assay; type: biochemical; conditions: means ± SD of duplicate experiments, read-out: Residual activity at 10 µM (%) BACE-1
T2 construct: purchased Sigma-Aldrich (USA)
T2 sequence (P56817 46-501, species assumed): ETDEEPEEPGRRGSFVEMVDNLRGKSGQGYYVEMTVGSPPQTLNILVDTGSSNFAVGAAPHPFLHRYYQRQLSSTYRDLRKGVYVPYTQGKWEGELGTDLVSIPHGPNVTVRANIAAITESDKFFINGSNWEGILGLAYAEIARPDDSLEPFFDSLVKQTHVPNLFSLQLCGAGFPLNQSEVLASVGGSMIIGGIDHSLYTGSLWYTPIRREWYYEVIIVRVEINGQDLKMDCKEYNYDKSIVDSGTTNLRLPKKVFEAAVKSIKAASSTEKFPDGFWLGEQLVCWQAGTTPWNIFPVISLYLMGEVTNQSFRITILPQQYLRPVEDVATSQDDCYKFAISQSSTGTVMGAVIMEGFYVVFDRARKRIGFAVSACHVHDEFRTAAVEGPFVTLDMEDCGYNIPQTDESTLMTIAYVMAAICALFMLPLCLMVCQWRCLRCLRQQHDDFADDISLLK

BChE from equine serum = target: T3, BChE from equine serum (Equus caballus, UniProt P81908); assay: biochemical; conditions: means ± SD of duplicate experiments, read-out: Residual activity at 10 µM (%) BChE
T3 construct: BChE from equine serum; purchased Sigma-Aldrich (USA); host or cells: equine serum
T3 sequence (P81908 whole entry): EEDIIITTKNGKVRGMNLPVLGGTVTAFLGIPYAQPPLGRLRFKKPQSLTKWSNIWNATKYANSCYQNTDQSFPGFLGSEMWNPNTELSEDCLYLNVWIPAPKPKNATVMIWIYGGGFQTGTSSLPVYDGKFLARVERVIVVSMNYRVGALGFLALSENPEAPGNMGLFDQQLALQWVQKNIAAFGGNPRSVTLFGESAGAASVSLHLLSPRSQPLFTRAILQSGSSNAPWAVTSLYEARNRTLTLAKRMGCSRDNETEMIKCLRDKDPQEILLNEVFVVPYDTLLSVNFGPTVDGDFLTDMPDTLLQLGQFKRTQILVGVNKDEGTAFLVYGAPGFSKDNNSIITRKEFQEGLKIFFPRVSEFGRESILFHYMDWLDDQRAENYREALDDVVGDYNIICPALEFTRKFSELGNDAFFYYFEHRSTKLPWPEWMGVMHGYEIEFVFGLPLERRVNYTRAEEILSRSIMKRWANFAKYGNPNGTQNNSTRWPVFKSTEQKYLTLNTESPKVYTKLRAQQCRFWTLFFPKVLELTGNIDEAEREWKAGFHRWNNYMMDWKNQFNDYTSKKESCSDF
Method: (§1) All other chemicals were of reagent grade.
(§2) MAO-A and MAO-B inhibitory activities were determined using a continuous spectrophotometric method as described previously. […] AChE activities were assayed as described by Ellman et al., with slight modification. The inhibitory activities of AChE and BChE were measured after the enzyme was preincubated with inhibitors for 15 min and before adding DTNB and the substrate (ATCI and BTCI, respectively). […] Reaction rates were expressed as changes in absorbance per minute.

human MAO-B [2] = target: T4, human MAO-B (Homo sapiens, UniProt P27338); assay: biochemical; type: biochemical; conditions: for remaining activity at 10 µM / IC50: means ± SD of duplicate experiments; for remaining activity at 10 µM: read-out: Residual activity at 10 µM (%) MAO-B
T4 construct: purchased Sigma-Aldrich (USA)
T4 sequence (P27338 1-520): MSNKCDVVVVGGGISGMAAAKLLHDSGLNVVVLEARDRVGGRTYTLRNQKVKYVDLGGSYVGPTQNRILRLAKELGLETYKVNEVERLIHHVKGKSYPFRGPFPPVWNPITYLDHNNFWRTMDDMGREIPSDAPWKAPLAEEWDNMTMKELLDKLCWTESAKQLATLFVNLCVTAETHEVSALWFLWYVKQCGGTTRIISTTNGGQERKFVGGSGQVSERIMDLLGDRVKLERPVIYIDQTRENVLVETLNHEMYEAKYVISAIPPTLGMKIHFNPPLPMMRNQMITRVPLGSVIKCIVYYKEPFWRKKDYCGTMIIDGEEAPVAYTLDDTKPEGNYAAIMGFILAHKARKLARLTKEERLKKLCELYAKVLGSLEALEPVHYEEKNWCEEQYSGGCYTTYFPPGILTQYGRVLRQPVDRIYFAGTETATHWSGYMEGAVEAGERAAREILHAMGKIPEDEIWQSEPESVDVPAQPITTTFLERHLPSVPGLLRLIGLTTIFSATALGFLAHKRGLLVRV
Method: as §1, §2

Recombinant human MAO-A [3] = target: T5, Recombinant human MAO-A (Homo sapiens, UniProt P21397); assay: biochemical; type: biochemical; conditions: for remaining activity at 10 µM / IC50: means ± SD of duplicate experiments; for remaining activity at 10 µM: read-out: Residual activity at 10 µM (%) MAO-A; for SI (selectivity index): ratio of high IC50/low IC50 for MAO inhibition (compound 1: MAO-A versus MAO-B; compound 2: MAO-B versus MAO-A)
T5 construct: purchased Sigma-Aldrich (USA)
T5 sequence (P21397 1-527): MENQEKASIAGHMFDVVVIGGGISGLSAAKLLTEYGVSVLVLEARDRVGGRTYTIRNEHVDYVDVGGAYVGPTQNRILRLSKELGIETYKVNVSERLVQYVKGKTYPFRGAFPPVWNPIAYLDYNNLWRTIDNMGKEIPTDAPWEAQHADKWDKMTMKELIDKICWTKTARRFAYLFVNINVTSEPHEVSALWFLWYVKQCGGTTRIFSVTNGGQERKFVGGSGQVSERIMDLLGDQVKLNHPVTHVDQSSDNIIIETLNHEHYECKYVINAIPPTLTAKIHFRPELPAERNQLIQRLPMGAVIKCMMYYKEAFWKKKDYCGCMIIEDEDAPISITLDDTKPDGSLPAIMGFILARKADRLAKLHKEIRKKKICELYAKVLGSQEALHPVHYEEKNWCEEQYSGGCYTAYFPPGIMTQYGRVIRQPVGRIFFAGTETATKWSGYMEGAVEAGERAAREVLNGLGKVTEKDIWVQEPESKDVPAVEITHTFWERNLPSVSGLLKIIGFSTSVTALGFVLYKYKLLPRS
Method: as §1, §2

MAO-B = conditions: cited from earlier work
Recombinant human MAO-A [4] = target: T5, Recombinant human MAO-A; assay: MAO-A inhibition kinetics (Lineweaver-Burk and secondary plots); type: biochemical; conditions: for Mode of MAO-A inhibition: Lineweaver-Burk plots; for Ki: secondary plots of Lineweaver-Burk slopes, kynuramine 0.0075-0.12 mM
Method: (§3) Kinetic parameters, inhibition types, and […] (Ki) values of potent MAO-A and MAO-B inhibitors (i.e., compound 1 for MAO-A; compound 2 for MAO-A and MAO-B) were determined, as previously described. […]; Inhibitory patterns and Ki values were determined using Lineweaver-Burk plots and secondary plots of their slopes.
(§4) Modes of MAO-A inhibition by compound 1 and modes of MAO-A and MAO-B inhibition by compound 2 were investigated using Lineweaver-Burk plots. […].
(§5) Fig. 3 Lineweaver-Burk plots of monoamine oxidase (MAO)-A inhibition by compound 1 (A) and of MAOA and MAO-B inhibition by compound 2 (C and E for respective MOA isoforms) as well as their respective secondary plots, as slopes of Lineweaver-Burk plots vs. inhibitor concentrations (B, D, and F). […]. […] The initial velocity was expressed as an increase in absorbance per min.

Recombinant human MAO-A [5] = target: T5, Recombinant human MAO-A; assay: Reversibility of MAO-A inhibition by dialysis; type: biochemical; conditions: for Reversibility of MAO-A inhibition: dialysis; for Relative activity of MAO-A, dialyzed (AD) / Relative activity of MAO-A, undialyzed (AU): inhibitor at twice the IC50, preincubated 30 min; for Relative activity of MAO-A, dialyzed (AD): after dialysis
Method: (§6) After the compounds or reference inhibitors were preincubated with MAOs for 30 min, residual activities for undialyzed and dialyzed samples were measured. The relative values for undialyzed (AU) and dialyzed (AD) activities were then calculated, and the reversibilities were determined by comparing the AU and AD values of the inhibitors with those of the references.
(§7) Results are the averages of experiments performed in duplicate.

human MAO-B [6] = target: T4, human MAO-B; assay: MAO-B inhibition kinetics (Lineweaver-Burk and secondary plots); type: biochemical
Method: as §3, §4, §5

human MAO-B [7] = target: T4, human MAO-B; assay: Reversibility of MAO-B inhibition by dialysis; type: biochemical
Method: as §6, §7

## O=c1oc2cc(O)ccc2c2ccccc12 [UroB]
MAO-A
  IC50: 0.88 µM

## COc1cccc2nc3ccccc3nc12 [Compound 3, 1-methoxyphenazine]
[1]
  remaining activity at 10 µM: 83 ± 8.24%
BACE-1
  remaining activity at 10 µM: 79.9 ± 0.73%
BChE from equine serum
  remaining activity at 10 µM: 97 ± 2.72%
Human MAO-B [2]
  Inhibitory activity against MAO-B (in words): did not inhibit; also recorded: little inhibitory activity
  remaining activity at 10 µM: 96.9 ± 2.65%
Recombinant human MAO-A [3]
  Inhibitory activity against MAO-A (in words): did not inhibit; also recorded: little inhibitory activity
  remaining activity at 10 µM: 93.6 ± 4.11%

## CC1CC(=O)c2c(O)cccc2O1 (stereo not shown) [HMC, 5-hydroxy-2-methyl-chroman-4-one]
MAO-A
  IC50: 14 µM
MAO-B
  IC50: 3.23 µM

## CC(C)c1cc(=O)c2c(O)cc(O)cc2o1 [Compound 1, 5,7-dihydroxy-2-isopropyl-4H-chromen-4-one]
[1]
  remaining activity at 10 µM: 70.5 ± 6.31%
  IC50: 31.7 ± 2.39 µM
BACE-1
  remaining activity at 10 µM: 85.8 ± 0.28%
BChE from equine serum
  remaining activity at 10 µM: 80.7 ± 3.46%
Recombinant human MAO-A [4]
  Mode of MAO-A inhibition: competitive inhibitor
  Ki: 940 ± 280 nM
Recombinant human MAO-A [5]
  Reversibility of MAO-A inhibition: reversible inhibitor
  Relative activity of MAO-A, dialyzed (AD): 90.9%
  Relative activity of MAO-A, undialyzed (AU): 35.5%
Human MAO-B [2]
  remaining activity at 10 µM: 71.5 ± 5.45%
  IC50: 27 ± 2.78 µM
Recombinant human MAO-A [3]
  remaining activity at 10 µM: 25.4 ± 2.24%
  IC50: 2.7 ± 0.034 µM
  SI (selectivity index): 10.0

## O=c1oc2cc(O)ccc2c2cc(O)c(O)cc12 [Ur°C]
MAO-A
  IC50: 29.6 µM

## O=c1oc2cc(O)ccc2c2ccc(O)cc12 [UroA]
MAO-A
  IC50: 5.88 µM

## COc1cc(O)c2c(=O)oc3cc(O)cc(C)c3c2c1 [alternariol monomethyl ether]
MAO-A
  IC50: 1.71 µM

## CN1C(=N)N(C)/C(=C/c2c[nH]c3ccccc23)C1=O [aplysinopsin]
MAO-A
  IC50: 0.0056 µM

## CCC(C)c1cc(=O)c2c(O)cc(O)cc2o1 (stereo not shown) [Compound 2, 5,7-dihydroxy-2-(1-methylpropyl)-4H-chromen-4-one]
[1]
  remaining activity at 10 µM: 88.3 ± 2.54%
BACE-1
  remaining activity at 10 µM: 98.3 ± 0.27%
Human MAO-B [6]; Lineweaver-Burk plots
  Mode of MAO-B inhibition: competitive inhibitor
Human MAO-B [6]; secondary plots of Lineweaver-Burk slopes, benzylamine 0.03-0.6 mM
  Ki: 1890 ± 14 nM
BChE from equine serum
  remaining activity at 10 µM: 96.4 ± 4.27%
Recombinant human MAO-A [4]
  Mode of MAO-A inhibition: competitive inhibitor
  Ki: 3570 ± 600 nM
Human MAO-B [7]; dialysis
  Reversibility of MAO-B inhibition: reversible inhibitor
Human MAO-B [7]; inhibitor at twice the IC50, preincubated 30 min, after dialysis
  Relative activity of MAO-B, dialyzed (AD): 76.7%
Human MAO-B [7]; inhibitor at twice the IC50, preincubated 30 min, undialyzed
  Relative activity of MAO-B, undialyzed (AU): 34.8%
Recombinant human MAO-A [5]
  Reversibility of MAO-A inhibition: reversible inhibitor
  Relative activity of MAO-A, dialyzed (AD): 79.4%
  Relative activity of MAO-A, undialyzed (AU): 35.6%
Human MAO-B [2]
  remaining activity at 10 µM: 34.4 ± 7.95%
  IC50: 3.42 ± 1.47 µM
Recombinant human MAO-A [3]
  remaining activity at 10 µM: 37.8 ± 0.82%
  IC50: 6.92 ± 0.067 µM
  SI (selectivity index): 2.02
